From patent US7498349B2, “Biaryl compounds having anti-infective activity” (Genesoft Pharmaceuticals, Inc., priority 2002, dated 2009)

Tests used:
S. aureus ATCC 33591 = experiment: MIC, NCCLS broth microdilution assay; format: cell-based, Staphylococcus aureus; conditions: S. aureus ATCC 33591
From the text: (§1) In vitro biological activity data were collected for a variety of microorganisms, including Bacillus cereus (ATCC 11778), Staphylococcus aureus (ATCC 33591; ATCC 27660, a methicillin resistant strain (MRSA); ATCC 13709, a methicillin sensitive strain (MSSA)), Escherichia coli (ATCC 25922), Enterococcus faecalis (ATCC 29212), Streptococcus pneumoniae (ATCC 49619; ATCC 51422, a penicillin resistant strain (PRSP)), Enterococcus faecium (ATCC 51559, a vancomycin resistant strain (VRE)), and Staphylococcus epidermidis (ATCC 12228).
(§2) The minimal inhibition concentration (MIC) of these compounds was determined using the National Committee for Clinical Laboratory Standards (NCCLS) broth microdilution assay in microtiter plates, as set forth in: (1) the guidelines of the National Committee for Clinical Laboratory Standards (NCCLS) Document M7-A4 (NCCLS, 1997); (2) the guidelines of the National Committee for Clinical Laboratory Standards (NCCLS) Document M11-A4 (NCCLS, 1997); and (3) the guidelines and reference method of the National Committee for Clinical Laboratory Standards (NCCLS) Document M27 -T (NCCLS, 1995).

B. cereus ATCC 11778 = experiment: MIC, NCCLS broth microdilution assay; format: cell-based, Bacillus cereus; conditions: B. cereus ATCC 11778
S. aureus ATCC 27660 = experiment: MIC, NCCLS broth microdilution assay; format: cell-based, Staphylococcus aureus; conditions: S. aureus ATCC 27660, methicillin resistant strain (MRSA)
From the text: as §1, §2

E. faecalis ATCC 29212 = experiment: MIC, NCCLS broth microdilution assay; format: cell-based, Enterococcus faecalis; conditions: E. faecalis ATCC 29212
S. pneumoniae ATCC 49619 = experiment: MIC, NCCLS broth microdilution assay; format: cell-based, Streptococcus pneumoniae; conditions: S. pneumoniae ATCC 49619
C. albicans ATCC 38247 = experiment: MIC, antifungal assay; format: cell-based, Candida albicans; conditions: C. albicans ATCC 38247
From the text: In vitro biological activity data were collected for a variety of microorganisms, including Bacillus cereus (ATCC 11778), Staphylococcus aureus (ATCC 33591; ATCC 27660, a methicillin resistant strain (MRSA); ATCC 13709, a methicillin sensitive strain (MSSA)), Escherichia coli (ATCC 25922), Enterococcus faecalis (ATCC 29212), Streptococcus pneumoniae (ATCC 49619; ATCC 51422, a penicillin resistant strain (PRSP)), Enterococcus faecium (ATCC 51559, a vancomycin resistant strain (VRE)), and Staphylococcus epidermidis (ATCC 12228). Additionally, antifungal activity data were collected for Candida albicans (ATCC 38247).
The minimal inhibition concentration (MIC) of these compounds was determined using the National Committee for Clinical Laboratory Standards (NCCLS) broth microdilution assay in microtiter plates, as set forth in: (1) the guidelines of the National Committee for Clinical Laboratory Standards (NCCLS) Document M7-A4 (NCCLS, 1997); (2) the guidelines of the National Committee for Clinical Laboratory Standards (NCCLS) Document M11-A4 (NCCLS, 1997); and (3) the guidelines and reference method of the National Committee for Clinical Laboratory Standards (NCCLS) Document M27 -T (NCCLS, 1995). For antifungal assays, the method recommended in Murray, PR., 1995 Manual of Clinical Microbiology (ASM Press, Washington, D.C.), was employed.

E. coli ATCC 25922 = experiment: MIC, NCCLS broth microdilution assay; format: cell-based, Escherichia coli; conditions: E. coli ATCC 25922
S. aureus ATCC 13709 = experiment: MIC, NCCLS broth microdilution assay; format: cell-based, Staphylococcus aureus; conditions: S. aureus ATCC 13709, methicillin sensitive strain (MSSA)

| SMILES | Minimum Inhibitory Concentration (MIC) (S. aureus ATCC 33591) | Minimum Inhibitory Concentration (MIC) (B. cereus ATCC 11778) | Minimum Inhibitory Concentration (MIC) (S. aureus ATCC 27660) | Minimum Inhibitory Concentration (MIC) (E. faecalis ATCC 29212) | Minimum Inhibitory Concentration (MIC) (S. pneumoniae ATCC 49619) | Minimum Inhibitory Concentration (MIC) (C. albicans ATCC 38247) | Minimum Inhibitory Concentration (MIC) (E. coli ATCC 25922) | Minimum Inhibitory Concentration (MIC) (S. aureus ATCC 13709) |
| --- | --- | --- | --- | --- | --- | --- | --- | --- |
| Cc1cc(NC(=O)c2cccnc2NCCCN(C)C)ccc1-c1cc2ccccc2o1 [Compound A-30] | +++ (MIC ≦ 4) | ++ (4 < MIC < 12) | +++ (MIC ≦ 4) | +++ (MIC ≦ 4) | + (12 ≦ MIC ≦ 32) | + (12 ≦ MIC ≦ 32) | >32 µg/mL | +++ (MIC ≦ 4) |
| O=C(Nc1ccc(-c2cc3ccccc3o2)cc1)c1cccnc1NCCN1CCCC1 [Compound A-15] | – | ++ (4 < MIC < 12) | +++ (MIC ≦ 4) | +++ (MIC ≦ 4) | + (12 ≦ MIC ≦ 32) | + (12 ≦ MIC ≦ 32) | >32 µg/mL | +++ (MIC ≦ 4) |
| O=C(Nc1ccc(-c2cc3ccccc3o2)cc1)c1cccnc1NCCN1CCSCC1 [Compound A-14] | – | >32 µg/mL | >32 µg/mL | >32 µg/mL | >32 µg/mL | >32 µg/mL | >32 µg/mL | >32 µg/mL |
| Cc1ccc2nc(-c3ccc(NC(=O)c4nsc(NCCCN(C)CCCN)c4Cl)cc3)sc2c1 [Compound A-51] | – | +++ (MIC ≦ 4) | +++ (MIC ≦ 4) | +++ (MIC ≦ 4) | +++ (MIC ≦ 4) | +++ (MIC ≦ 4) | >32 µg/mL | +++ (MIC ≦ 4) |
| NCCCCNc1snc(C(=O)Nc2ccc(-c3cc4ccccc4o3)cc2)c1Cl [Compound A-4] | – | + (12 ≦ MIC ≦ 32) | +++ (MIC ≦ 4) | +++ (MIC ≦ 4) | >32 µg/mL | + (12 ≦ MIC ≦ 32) | >32 µg/mL | +++ (MIC ≦ 4) |
| O=C(Nc1ccc(-c2cc3ccccc3o2)cc1)c1nsc(NCCN2CCNCC2)c1Cl [Compound A-1] | – | +++ (MIC ≦ 4) | +++ (MIC ≦ 4) | +++ (MIC ≦ 4) | + (12 ≦ MIC ≦ 32) | + (12 ≦ MIC ≦ 32) | >32 µg/mL | +++ (MIC ≦ 4) |
| CCN(CC)CCCNc1snc(C(=O)Nc2ccc(-c3cc4ccccc4o3)cc2)c1Cl [Compound A-5] | – | ++ (4 < MIC < 12) | +++ (MIC ≦ 4) | +++ (MIC ≦ 4) | >32 µg/mL | ++ (4 < MIC < 12) | >32 µg/mL | +++ (MIC ≦ 4) |
| O=C(Nc1ccc(-c2cc3ccccc3o2)cc1)c1cccnc1NCCN1CCCCC1 [Compound A-13] | – | +++ (MIC ≦ 4) | +++ (MIC ≦ 4) | +++ (MIC ≦ 4) | + (12 ≦ MIC ≦ 32) | + (12 ≦ MIC ≦ 32) | >32 µg/mL | +++ (MIC ≦ 4) |
| O=C(Nc1ccc(-c2cc3ccccc3o2)cc1)c1cccnc1NCCN1CCNCC1 [Compound A-10] | – | + (12 ≦ MIC ≦ 32) | – | + (12 ≦ MIC ≦ 32) | + (12 ≦ MIC ≦ 32) | >32 µg/mL | >32 µg/mL | – |
| NCCCNc1ncccc1C(=O)Nc1ccc(-c2cc3ccccc3o2)cc1 [Compound A-9] | – | +++ (MIC ≦ 4) | +++ (MIC ≦ 4) | +++ (MIC ≦ 4) | + (12 ≦ MIC ≦ 32) | + (12 ≦ MIC ≦ 32) | + (12 ≦ MIC ≦ 32) | +++ (MIC ≦ 4) |
| NCCOCCOCCNc1snc(C(=O)Nc2ccc(-c3cc4ccccc4o3)cc2)c1Cl [Compound A-6] | – | >32 µg/mL | +++ (MIC ≦ 4) | +++ (MIC ≦ 4) | >32 µg/mL | ++ (4 < MIC < 12) | >32 µg/mL | +++ (MIC ≦ 4) |
| Cc1ccc2nc(-c3ccc(NC(=O)c4nsc(NCCN)c4Cl)cc3)sc2c1 [Compound A-52] | +++ (MIC ≦ 4) | + (12 ≦ MIC ≦ 32) | – | +++ (MIC ≦ 4) | >32 µg/mL | >32 µg/mL | >32 µg/mL | +++ (MIC ≦ 4) |
| NCCN1CCN(c2ncccc2C(=O)Nc2ccc(-c3cc4ccccc4o3)cc2)CC1 [Compound A-17] | – | + (12 ≦ MIC ≦ 32) | + (12 ≦ MIC ≦ 32) | + (12 ≦ MIC ≦ 32) | + (12 ≦ MIC ≦ 32) | + (12 ≦ MIC ≦ 32) | >32 µg/mL | ++ (4 < MIC < 12) |
| NCCOCCOCCNc1ncccc1C(=O)Nc1ccc(-c2cc3ccccc3o2)cc1 [Compound A-22] | – | ++ (4 < MIC < 12) | ++ (4 < MIC < 12) | ++ (4 < MIC < 12) | + (12 ≦ MIC ≦ 32) | +++ (MIC ≦ 4) | >32 µg/mL | ++ (4 < MIC < 12) |
| O=C(Nc1ccc(-c2cc3ccccc3o2)cc1)c1cccnc1N1CCNCC1 [Compound A-20] | – | + (12 ≦ MIC ≦ 32) | ++ (4 < MIC < 12) | + (12 ≦ MIC ≦ 32) | + (12 ≦ MIC ≦ 32) | ++ (4 < MIC < 12) | + (12 ≦ MIC ≦ 32) | ++ (4 < MIC < 12) |
| O=C(Nc1ccc(-c2cc3ccccc3o2)cc1)c1cccnc1NCCCN1CCOCC1 [Compound A-16] | – | >32 µg/mL | +++ (MIC ≦ 4) | ++ (4 < MIC < 12) | + (12 ≦ MIC ≦ 32) | + (12 ≦ MIC ≦ 32) | >32 µg/mL | +++ (MIC ≦ 4) |
